Reference: PMC12698583, “Efficacy of sulfonamides targeting malic enzyme in an animal model of Chagas disease” (Frontiers in Pharmacology, 2025)

What was measured:
in vitro = in vitro ADME; conditions: for Papp at 5 h, 100 μM: PAMPA
Method: The parallel artificial membrane permeability assay (PAMPA) was performed using a 96-well pre-coated plate system (Corning® BioCoat™ PAMPA Plate System). […] A total of 200 µL of each solution was added to donor wells, while 300 µL of PBS was placed in the corresponding acceptor wells. The plates were assembled and incubated at 37 °C for 5 h. Aliquots of the initial donor solution (T0) were collected before incubation and stored at −20 °C. At the end of the incubation, samples from donor and acceptor compartments were transferred to tubes containing 30% (v/v) acetonitrile and processed under identical conditions. Compound concentrations in donor, acceptor, and T0 samples were quantified by high-performance liquid chromatography with ultraviolet detection (HPLC-UV) using validated chromatographic conditions. The apparent permeability coefficient (Papp) was calculated using the standard PAMPA equation, shown below. All experiments were performed in a trplicate.
The Papp equation is: Papp=−VD+VA/At VD+VAln 1−CA t/Ceq

[1] = Tolerability study, Hippocratic screening; assay type: in vivo, mice; parameters: Hypnosis / Sedation / Urination / Tachypnea / Muscle tone / Convulsions / Salivation / Tremors / Vocalization / Limb abduction / Ataxia: scale not given here; conditions: 150 mg/kg PO
Method: A tolerability study of drug candidates was conducted using the Hippocratic screening protocol, focusing on the assessment of effects on the central nervous system (CNS) and autonomic nervous system (ANS). Each group containing 3 animals received a 150 mg/kg dose of the compounds via oral (PO) administration (gavage). During the experiment, various behavioral and physiological parameters were monitored at regular intervals, ranging from 0 to 24 hours after administration of the substance.

[2] = pH 5.5, PAMPA pH 5,5 Papp - lower
[3] = pH 5.5, PAMPA pH 5,5 Papp - upper
[4] = pH 7.4, PAMPA pH 7,4 Papp - lower
[5] = pH 7.4, PAMPA pH 7,4 Papp - upper

SMILES: CC(C)Oc1ccc(NS(=O)(=O)c2cccc(NC(=O)c3cnccn3)c2)cc1 [AC-M110, N-(3-(N-(4-isopropoxyphenyl)sulfamoyl)phenyl)pyrazine-2-carboxamide]
- Papp at 5 h, 100 μM (in vitro; [2]): 3.4 ×10⁻⁶ cm/s
- Papp at 5 h, 100 μM (in vitro; [3]): 4.4 ×10⁻⁶ cm/s
- Papp at 5 h, 100 μM (in vitro; [4]): 9.1 ×10⁻⁶ cm/s
- Papp at 5 h, 100 μM (in vitro; [5]): 9.6 ×10⁻⁶ cm/s
- PAMPA Papp at pH 5.5 (in vitro; pH 5.5): 3.4–4.5 × 10^−6
- Ataxia ([1]; 0-15 min): 0A
- Convulsions ([1]; 0-15 min): 0A
- Hypnosis ([1]; 0-15 min): 0A
- Limb abduction ([1]; 0-15 min): 0A
- Muscle tone ([1]; 0-15 min): 0A
- Pedaling ([1]; 0-15 min): 0A
- Piloerection ([1]; 0-15 min): 0A
- Ptosis ([1]; 0-15 min): 0A
- Salivation ([1]; 0-15 min): 0A
- Sedation ([1]; 0-15 min): 0A
- Tachypnea ([1]; 0-15 min): 0A
- Tremors ([1]; 0-15 min): 0A
- Urination ([1]; 0-15 min): 0A
- Vocalization ([1]; 0-15 min): 0A
- Ataxia ([1]; 15 min): 0A
- Convulsions ([1]; 15 min): 0A
- Hypnosis ([1]; 15 min): 0A
- Limb abduction ([1]; 15 min): 0A
- Muscle tone ([1]; 15 min): 0A
- Pedaling ([1]; 15 min): 0A
- Piloerection ([1]; 15 min): 0A
- Ptosis ([1]; 15 min): 0A
- Salivation ([1]; 15 min): 0A
- Sedation ([1]; 15 min): 0A
- Tachypnea ([1]; 15 min): 0A
- Tremors ([1]; 15 min): 0A
- Urination ([1]; 15 min): 0A
- Vocalization ([1]; 15 min): 0A
- Ataxia ([1]; 30 min): 0A
- Convulsions ([1]; 30 min): 0A
- Hypnosis ([1]; 30 min): 0A
- Limb abduction ([1]; 30 min): 0A
- Muscle tone ([1]; 30 min): 0A
- Pedaling ([1]; 30 min): 0A
- Piloerection ([1]; 30 min): 0A
- Ptosis ([1]; 30 min): 0A
- Salivation ([1]; 30 min): 0A
- Sedation ([1]; 30 min): 0A
- Tachypnea ([1]; 30 min): 0A
- Tremors ([1]; 30 min): 0A
- Urination ([1]; 30 min): 0A
- Vocalization ([1]; 30 min): 0A
- Ataxia ([1]; 60 min): 0A
- Convulsions ([1]; 60 min): 0A
- Hypnosis ([1]; 60 min): 0A
- Limb abduction ([1]; 60 min): 0A
- Muscle tone ([1]; 60 min): 0A
- Pedaling ([1]; 60 min): 0A
- Piloerection ([1]; 60 min): 0A
- Ptosis ([1]; 60 min): 0A
- Salivation ([1]; 60 min): 0A
- Sedation ([1]; 60 min): 0A
- Tachypnea ([1]; 60 min): 0A
- Tremors ([1]; 60 min): 0A
- Urination ([1]; 60 min): 0A
- Vocalization ([1]; 60 min): 0A
- Ataxia ([1]; 2h): 0A
- Convulsions ([1]; 2h): 0A
- Hypnosis ([1]; 2h): 0A
- Limb abduction ([1]; 2h): 0A
- Muscle tone ([1]; 2h): 0A
- Pedaling ([1]; 2h): 0A
- Piloerection ([1]; 2h): 0A
- Ptosis ([1]; 2h): 0A
- Salivation ([1]; 2h): 0A
- Sedation ([1]; 2h): 0A
- Tachypnea ([1]; 2h): 0A
- Tremors ([1]; 2h): 0A
- Urination ([1]; 2h): 0A
- Vocalization ([1]; 2h): 0A
- Ataxia ([1]; 3h): 0A
- Convulsions ([1]; 3h): 0A
- Hypnosis ([1]; 3h): 0A
- Limb abduction ([1]; 3h): 0A
- Muscle tone ([1]; 3h): 0A
- Pedaling ([1]; 3h): 0A
- Piloerection ([1]; 3h): 0A
- Ptosis ([1]; 3h): 0A
- Salivation ([1]; 3h): 0A
- Sedation ([1]; 3h): 0A
- Tachypnea ([1]; 3h): 0A
- Tremors ([1]; 3h): 0A
- Urination ([1]; 3h): 0A
- Vocalization ([1]; 3h): 0A
- Ataxia ([1]; 4h): 0A
- Convulsions ([1]; 4h): 0A
- Hypnosis ([1]; 4h): 0A
- Limb abduction ([1]; 4h): 0A
- Muscle tone ([1]; 4h): 0A
- Pedaling ([1]; 4h): 0A
- Piloerection ([1]; 4h): 0A
- Ptosis ([1]; 4h): 0A
- Salivation ([1]; 4h): 0A
- Sedation ([1]; 4h): 0A
- Tachypnea ([1]; 4h): 0A
- Tremors ([1]; 4h): 0A
- Urination ([1]; 4h): 0A
- Vocalization ([1]; 4h): 0A
- Ataxia ([1]; 24h): 0A
- Convulsions ([1]; 24h): 0A
- Hypnosis ([1]; 24h): 0A
- Limb abduction ([1]; 24h): 0A
- Muscle tone ([1]; 24h): 0A
- Pedaling ([1]; 24h): 0A
- Piloerection ([1]; 24h): 0A
- Ptosis ([1]; 24h): 0A
- Salivation ([1]; 24h): 0A
- Sedation ([1]; 24h): 0A
- Tachypnea ([1]; 24h): 0A
- Tremors ([1]; 24h): 0A
- Urination ([1]; 24h): 0A
- Vocalization ([1]; 24h): 0A

SMILES: COc1ccc(NS(=O)(=O)c2cccc(NC(=O)c3cnccn3)c2)cc1 [AC-R008, N-(3-(N-(4-methoxyphenyl)sulfamoyl)phenyl)pyrazine-2-carboxamide]
- Papp at 5 h, 100 μM (in vitro; [2]): 40.5 ×10⁻⁶ cm/s
- Papp at 5 h, 100 μM (in vitro; [3]): 56 ×10⁻⁶ cm/s
- Papp at 5 h, 100 μM (in vitro; pH 7.4, PAMPA Papp at pH 7.4): 92 ×10⁻⁶ cm/s
- Papp at 5 h, 100 μM (in vitro; [4]): 92 ×10⁻⁶ cm/s
- Papp at 5 h, 100 μM (in vitro; [5]): 86 ×10⁻⁶ cm/s
- Ataxia ([1]; 0-15 min): 0A
- Convulsions ([1]; 0-15 min): 0A
- Hypnosis ([1]; 0-15 min): 0A
- Limb abduction ([1]; 0-15 min): 0A
- Muscle tone ([1]; 0-15 min): 0A
- Pedaling ([1]; 0-15 min): 0A
- Piloerection ([1]; 0-15 min): 0A
- Ptosis ([1]; 0-15 min): 0A
- Salivation ([1]; 0-15 min): 0A
- Sedation ([1]; 0-15 min): 0A
- Tachypnea ([1]; 0-15 min): 0A
- Tremors ([1]; 0-15 min): 0A
- Urination ([1]; 0-15 min): 0A
- Vocalization ([1]; 0-15 min): 0A
- Ataxia ([1]; 15 min): 0A
- Convulsions ([1]; 15 min): 0A
- Hypnosis ([1]; 15 min): 0A
- Limb abduction ([1]; 15 min): 0A
- Muscle tone ([1]; 15 min): 0A
- Pedaling ([1]; 15 min): 0A
- Piloerection ([1]; 15 min): 0A
- Ptosis ([1]; 15 min): 0A
- Salivation ([1]; 15 min): 0A
- Sedation ([1]; 15 min): 0A
- Tachypnea ([1]; 15 min): 0A
- Tremors ([1]; 15 min): 0A
- Urination ([1]; 15 min): 0A
- Vocalization ([1]; 15 min): 0A
- Ataxia ([1]; 30 min): 0A
- Convulsions ([1]; 30 min): 0A
- Hypnosis ([1]; 30 min): 0A
- Limb abduction ([1]; 30 min): 0A
- Muscle tone ([1]; 30 min): 0A
- Pedaling ([1]; 30 min): 0A
- Piloerection ([1]; 30 min): 0A
- Ptosis ([1]; 30 min): 0A
- Salivation ([1]; 30 min): 0A
- Sedation ([1]; 30 min): 0A
- Tachypnea ([1]; 30 min): 0A
- Tremors ([1]; 30 min): 0A
- Urination ([1]; 30 min): 0A
- Vocalization ([1]; 30 min): 0A
- Ataxia ([1]; 60 min): 0A
- Convulsions ([1]; 60 min): 0A
- Hypnosis ([1]; 60 min): 0A
- Limb abduction ([1]; 60 min): 0A
- Muscle tone ([1]; 60 min): 0A
- Pedaling ([1]; 60 min): 0A
- Piloerection ([1]; 60 min): 0A
- Ptosis ([1]; 60 min): 0A
- Salivation ([1]; 60 min): 0A
- Sedation ([1]; 60 min): 0A
- Tachypnea ([1]; 60 min): 0A
- Tremors ([1]; 60 min): 0A
- Urination ([1]; 60 min): 0A
- Vocalization ([1]; 60 min): 0A
- Ataxia ([1]; 2h): 0A
- Convulsions ([1]; 2h): 0A
- Hypnosis ([1]; 2h): 0A
- Limb abduction ([1]; 2h): 0A
- Muscle tone ([1]; 2h): 0A
- Pedaling ([1]; 2h): 0A
- Piloerection ([1]; 2h): 0A
- Ptosis ([1]; 2h): 0A
- Salivation ([1]; 2h): 0A
- Sedation ([1]; 2h): 0A
- Tachypnea ([1]; 2h): 0A
- Tremors ([1]; 2h): 0A
- Urination ([1]; 2h): 0A
- Vocalization ([1]; 2h): 0A
- Ataxia ([1]; 3h): 0A
- Convulsions ([1]; 3h): 0A
- Hypnosis ([1]; 3h): 0A
- Limb abduction ([1]; 3h): 0A
- Muscle tone ([1]; 3h): 0A
- Pedaling ([1]; 3h): 0A
- Piloerection ([1]; 3h): 0A
- Ptosis ([1]; 3h): 0A
- Salivation ([1]; 3h): 0A
- Sedation ([1]; 3h): 0A
- Tachypnea ([1]; 3h): 0A
- Tremors ([1]; 3h): 0A
- Urination ([1]; 3h): 0A
- Vocalization ([1]; 3h): 0A
- Ataxia ([1]; 4h): 0A
- Convulsions ([1]; 4h): 0A
- Hypnosis ([1]; 4h): 0A
- Limb abduction ([1]; 4h): 0A
- Muscle tone ([1]; 4h): 0A
- Pedaling ([1]; 4h): 0A
- Piloerection ([1]; 4h): 0A
- Ptosis ([1]; 4h): 0A
- Salivation ([1]; 4h): 0A
- Sedation ([1]; 4h): 0A
- Tachypnea ([1]; 4h): 0A
- Tremors ([1]; 4h): 0A
- Urination ([1]; 4h): 0A
- Vocalization ([1]; 4h): 0A
- Ataxia ([1]; 24h): 0A
- Convulsions ([1]; 24h): 0A
- Hypnosis ([1]; 24h): 0A
- Limb abduction ([1]; 24h): 0A
- Muscle tone ([1]; 24h): 0A
- Pedaling ([1]; 24h): 0A
- Piloerection ([1]; 24h): 0A
- Ptosis ([1]; 24h): 0A
- Salivation ([1]; 24h): 0A
- Sedation ([1]; 24h): 0A
- Tachypnea ([1]; 24h): 0A
- Tremors ([1]; 24h): 0A
- Urination ([1]; 24h): 0A
- Vocalization ([1]; 24h): 0A
